Experimental findings from patent US20120202818A1, “UREIDOPHENYL SUBSTITUTED TRIAZINE DERIVATIVES AND THEIR THERAPEUTICAL APPLICATIONS” (CALIFORNIA CAPITAL EQUITY, LLC, priority 2009, published 2012) are described below.

Holding throughout (type): biochemical
One assay has as its target T1, c-Src kinase (Homo sapiens, UniProt P12931).
T1 construct: purchased Millipore (KinaseProfiler service) and/or Reaction Biology Corp. (Kinase HotSpot service)
As to the kind of experiment: c-Src kinase assay (KinaseProfiler / Kinase HotSpot). The settings on record: compound at 1 μM; read-out: % Inhibition @1 μM cSrc. The protocol:
(§1) This example illustrated c-Src kinase, Aurora-A kinase, Flt3 kinase, Ret kinase and TrkA Kinase Assays of selected Compounds from this invention (referred to Daniele Fancelli et al, J. Med. Chem., 2006, 49 (24), pp 7247-7251). The KinaseProfiler™ Service Assay Protocols (Millipore) were used to test the kinase inhibiting activity of novel compounds from this invention. To do this, the buffer composition was as: 20 mM MOPS, 1 mM EDTA, 0.01% Brij-35, 5% Glycerol, 0.1% β-mercaptoethanol, 1 mg/mL BSA. Test compounds were initially dissolved in DMSO at the desired concentration, then serially diluted to the kinase assay buffer. In a final reaction volume of 25 μL, Aurora-A(h) (5-10 mU) is incubated with 8 mM MOPS pH 7.0, 0.2 mM EDTA, 200 μM LRRASLG (Kemptide), 10 mM MgAcetate and [γ^33P-ATP]. The reaction was initiated by the addition of the MgATP mix. After incubation for 40 minute at room temperature, the reaction was stopped by addition of 5 μL of a 3% phosphoric acid solution. 10 μL of the reaction was then spotted onto a P30 filtermat and washed three times for 5 minutes in 50 mM phosphoric acid and once in methanol prior to drying and scintillation counting. Wells containing substrate but no kinase and wells containing a phosphopeptide control were used to set 0% and 100% phosphorylation value, respectively.
(§2) Also Kinase Hotspot ^SM kinase assay was used to test the compounds for IC50 or % inhibitions (Reaction Biology Corp.). Inhibitor IC50 values were determined by titration of compound at the optimal kinase concentration (Kinase EC50).

In a further assay the target is T2, Aurora-A kinase (Homo sapiens, UniProt O14965).
T2 construct: purchased Millipore (KinaseProfiler service) and/or Reaction Biology Corp. (Kinase HotSpot service)
T2 sequence (O14965 1-403): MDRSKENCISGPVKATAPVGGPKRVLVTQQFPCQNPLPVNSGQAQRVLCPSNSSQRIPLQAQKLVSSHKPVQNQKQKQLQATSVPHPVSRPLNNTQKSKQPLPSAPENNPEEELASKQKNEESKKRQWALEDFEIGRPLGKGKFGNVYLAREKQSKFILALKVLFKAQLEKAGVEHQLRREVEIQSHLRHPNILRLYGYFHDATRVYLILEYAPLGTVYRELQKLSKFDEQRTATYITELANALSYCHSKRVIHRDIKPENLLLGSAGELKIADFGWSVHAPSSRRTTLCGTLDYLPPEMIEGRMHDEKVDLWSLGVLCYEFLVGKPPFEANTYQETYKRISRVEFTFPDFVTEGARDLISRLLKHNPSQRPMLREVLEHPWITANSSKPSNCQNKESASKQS
As to the kind of experiment: Aurora-A kinase assay (KinaseProfiler / Kinase HotSpot). Conditions: compound at 1 μM; read-out: % Inhibition @1 μM Auroro-A. The protocol:
as §1, §2

For a further assay, the target named is T3, Flt3 kinase (Homo sapiens, UniProt P36888).
T3 construct: purchased Millipore (KinaseProfiler service) and/or Reaction Biology Corp. (Kinase HotSpot service)
T3 sequence (P36888 27-993): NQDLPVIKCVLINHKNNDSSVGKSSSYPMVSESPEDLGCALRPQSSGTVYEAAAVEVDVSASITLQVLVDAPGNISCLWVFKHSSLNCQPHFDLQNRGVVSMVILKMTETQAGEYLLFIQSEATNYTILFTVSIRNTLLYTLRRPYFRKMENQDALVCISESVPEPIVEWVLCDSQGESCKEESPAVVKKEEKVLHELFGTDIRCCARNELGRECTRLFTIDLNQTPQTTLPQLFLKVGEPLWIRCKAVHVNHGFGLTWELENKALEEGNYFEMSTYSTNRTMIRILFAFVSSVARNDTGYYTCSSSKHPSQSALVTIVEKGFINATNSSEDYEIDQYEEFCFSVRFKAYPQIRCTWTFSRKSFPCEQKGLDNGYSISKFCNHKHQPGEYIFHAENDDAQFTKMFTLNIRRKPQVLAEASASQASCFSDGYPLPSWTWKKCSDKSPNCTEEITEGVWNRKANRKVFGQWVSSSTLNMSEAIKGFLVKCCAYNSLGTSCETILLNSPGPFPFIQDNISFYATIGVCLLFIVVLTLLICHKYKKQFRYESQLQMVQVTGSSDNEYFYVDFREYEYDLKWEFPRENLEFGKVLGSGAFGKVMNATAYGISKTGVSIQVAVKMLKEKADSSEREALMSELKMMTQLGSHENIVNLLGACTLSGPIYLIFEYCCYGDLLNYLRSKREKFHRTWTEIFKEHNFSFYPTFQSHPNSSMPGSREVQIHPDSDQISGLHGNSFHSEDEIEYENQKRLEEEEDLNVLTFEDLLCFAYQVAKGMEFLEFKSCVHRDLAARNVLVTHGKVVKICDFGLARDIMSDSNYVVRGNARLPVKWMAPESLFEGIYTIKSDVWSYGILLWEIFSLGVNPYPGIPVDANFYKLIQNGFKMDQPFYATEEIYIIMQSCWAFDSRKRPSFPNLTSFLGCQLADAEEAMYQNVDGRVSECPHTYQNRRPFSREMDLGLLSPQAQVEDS
As to the kind of experiment: Flt3 kinase assay (KinaseProfiler / Kinase HotSpot). The settings on record: compound at 1 μM. The protocol:
as §1, §2

The target of the next assay is T4, Ret kinase (Homo sapiens, UniProt P07949).
T4 construct: purchased Millipore (KinaseProfiler service) and/or Reaction Biology Corp. (Kinase HotSpot service)
As to the kind of experiment: Ret kinase assay (KinaseProfiler / Kinase HotSpot). The settings on record: compound at 1 μM. How it is done: as §1, §2

Another assay deals with T5, TrkA Kinase (Homo sapiens, UniProt P04629).
T5 construct: purchased Millipore (KinaseProfiler service) and/or Reaction Biology Corp. (Kinase HotSpot service)
As to the kind of experiment: TrkA kinase assay (KinaseProfiler / Kinase HotSpot). Conditions: compound at 1 μM. The protocol:
as §1, §2

T5 sequence (P04629 33-796): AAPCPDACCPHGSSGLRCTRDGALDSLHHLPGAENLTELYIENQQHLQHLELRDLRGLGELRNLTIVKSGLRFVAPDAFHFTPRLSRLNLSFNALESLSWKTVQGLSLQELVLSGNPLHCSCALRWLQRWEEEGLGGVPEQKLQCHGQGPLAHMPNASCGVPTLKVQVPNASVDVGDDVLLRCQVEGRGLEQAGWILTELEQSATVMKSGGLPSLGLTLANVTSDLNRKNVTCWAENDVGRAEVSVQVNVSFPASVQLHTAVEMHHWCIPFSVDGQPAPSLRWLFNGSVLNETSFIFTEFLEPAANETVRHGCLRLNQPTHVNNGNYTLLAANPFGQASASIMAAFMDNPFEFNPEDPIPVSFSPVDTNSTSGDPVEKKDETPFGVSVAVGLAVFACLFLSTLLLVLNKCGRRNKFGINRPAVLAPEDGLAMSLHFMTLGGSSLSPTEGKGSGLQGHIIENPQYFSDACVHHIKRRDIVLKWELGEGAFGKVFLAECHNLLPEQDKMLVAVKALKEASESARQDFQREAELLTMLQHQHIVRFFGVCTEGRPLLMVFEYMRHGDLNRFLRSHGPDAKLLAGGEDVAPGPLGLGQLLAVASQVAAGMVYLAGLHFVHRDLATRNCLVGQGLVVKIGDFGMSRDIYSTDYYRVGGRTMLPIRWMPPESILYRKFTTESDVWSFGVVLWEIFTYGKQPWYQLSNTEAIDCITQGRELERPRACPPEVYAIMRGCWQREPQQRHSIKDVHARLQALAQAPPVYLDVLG
T1 sequence (P12931 whole entry): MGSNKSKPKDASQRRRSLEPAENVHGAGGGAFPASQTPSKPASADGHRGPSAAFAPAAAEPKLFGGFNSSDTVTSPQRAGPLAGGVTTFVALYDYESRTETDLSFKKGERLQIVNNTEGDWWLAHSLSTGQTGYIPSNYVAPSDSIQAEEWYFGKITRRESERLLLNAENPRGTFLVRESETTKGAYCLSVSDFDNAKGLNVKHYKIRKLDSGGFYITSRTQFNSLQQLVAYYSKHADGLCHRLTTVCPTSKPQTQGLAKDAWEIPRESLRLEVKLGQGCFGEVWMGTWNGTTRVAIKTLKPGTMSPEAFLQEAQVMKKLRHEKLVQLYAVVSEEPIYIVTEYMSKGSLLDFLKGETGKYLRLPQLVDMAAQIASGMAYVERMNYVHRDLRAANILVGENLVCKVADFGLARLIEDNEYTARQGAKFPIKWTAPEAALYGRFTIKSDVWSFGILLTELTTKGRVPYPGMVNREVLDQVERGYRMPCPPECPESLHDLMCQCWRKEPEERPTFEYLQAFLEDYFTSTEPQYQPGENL
T4 sequence (P07949 29-1114): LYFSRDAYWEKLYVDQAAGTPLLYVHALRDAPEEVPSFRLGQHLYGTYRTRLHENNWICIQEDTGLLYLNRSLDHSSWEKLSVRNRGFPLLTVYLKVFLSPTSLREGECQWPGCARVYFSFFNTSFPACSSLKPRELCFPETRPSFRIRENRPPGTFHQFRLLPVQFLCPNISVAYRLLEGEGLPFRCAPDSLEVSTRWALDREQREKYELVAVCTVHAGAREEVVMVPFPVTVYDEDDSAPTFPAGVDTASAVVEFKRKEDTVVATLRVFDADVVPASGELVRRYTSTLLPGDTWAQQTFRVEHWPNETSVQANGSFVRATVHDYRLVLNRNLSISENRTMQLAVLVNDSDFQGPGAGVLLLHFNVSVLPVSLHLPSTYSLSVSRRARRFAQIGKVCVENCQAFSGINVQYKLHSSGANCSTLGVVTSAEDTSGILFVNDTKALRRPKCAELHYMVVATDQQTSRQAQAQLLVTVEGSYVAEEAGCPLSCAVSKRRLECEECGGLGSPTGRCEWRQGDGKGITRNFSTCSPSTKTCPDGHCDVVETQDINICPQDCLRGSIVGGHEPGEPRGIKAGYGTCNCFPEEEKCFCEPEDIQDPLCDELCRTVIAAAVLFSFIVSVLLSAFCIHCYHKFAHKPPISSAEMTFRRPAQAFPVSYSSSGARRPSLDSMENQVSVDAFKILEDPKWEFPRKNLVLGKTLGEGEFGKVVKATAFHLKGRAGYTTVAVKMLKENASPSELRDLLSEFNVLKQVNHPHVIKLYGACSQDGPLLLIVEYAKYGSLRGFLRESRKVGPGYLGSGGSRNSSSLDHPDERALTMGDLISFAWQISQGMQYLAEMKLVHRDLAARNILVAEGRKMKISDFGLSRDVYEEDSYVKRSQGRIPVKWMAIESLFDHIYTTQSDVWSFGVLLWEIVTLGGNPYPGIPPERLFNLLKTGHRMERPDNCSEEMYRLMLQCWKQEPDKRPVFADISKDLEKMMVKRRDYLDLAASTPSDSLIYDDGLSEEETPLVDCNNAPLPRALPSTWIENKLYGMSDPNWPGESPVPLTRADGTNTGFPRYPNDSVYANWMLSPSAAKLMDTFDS

Turning to `Cc1cnc(Nc2nc(Sc3cccc(N)c3)nc(N3CCN(C)CC3)n2)s1` [Example 3], the inhibition at 1 µM at c-Src kinase is less than 50%; at Aurora-A kinase it was 50 to 90%; at Flt3 kinase, 50 to 90%; against Ret kinase, less than 50%; on TrkA Kinase, 50 to 90%.
Take `CCc1nc(Nc2ccc(NC(=O)NC(C)C)cc2)nc(Nc2cc(C)[nH]n2)n1` [Example 21]: the inhibition at 1 µM at c-Src kinase, on Aurora-A kinase, against Flt3 kinase, against Ret kinase and on TrkA Kinase was less than 50% throughout.
In the case of `CCc1nc(Nc2ccc(NC(=O)NC(C)C)cc2)nc(Nc2cc(C)n(C(=O)NC(C)C)n2)n1` [Example 14], the inhibition at 1 µM was less than 50% on c-Src kinase; 50 to 90% at Aurora-A kinase; less than 50% at Flt3 kinase; less than 50% at Ret kinase; less than 50% against TrkA Kinase.
With `CCNC(=O)Nc1ccc(Nc2nc(CC)nc(Nc3cc(C)n(C(=O)NCC)n3)n2)cc1` [Example 13], the inhibition at 1 µM on c-Src kinase, on Aurora-A kinase, at Flt3 kinase, on Ret kinase and against TrkA Kinase was less than 50% throughout.
For `CCc1nc(Nc2ccc(NC(=O)Nc3ccc(OC)cc3)cc2)nc(Nc2cc(C)[nH]n2)n1` [Example 24], the inhibition at 1 µM on c-Src kinase is less than 50%; at Aurora-A kinase it was 50 to 90%; against Flt3 kinase it was 50 to 90%; against Ret kinase, 50 to 90%; against TrkA Kinase, less than 50%.
Regarding `CCc1nc(Nc2ccc(NC(=O)NCc3ccccc3)cc2)nc(Nc2cc(C)[nH]n2)n1` [Example 25], the inhibition at 1 µM at c-Src kinase is less than 50%; on Aurora-A kinase it was 50 to 90%; on Flt3 kinase, less than 50%; against Ret kinase, greater than 90%; at TrkA Kinase, less than 50%.
On to `CCc1nc(Nc2ccc(NC(=O)Nc3ccccc3)cc2)nc(Nc2ncc(C)s2)n1` [Example 15], for which the inhibition at 1 µM at c-Src kinase, on Aurora-A kinase, against Flt3 kinase, against Ret kinase and against TrkA Kinase was less than 50% each time.
For `CCc1nc(Nc2ccc(NC(=O)Nc3ccccc3C)cc2)nc(Nc2cc(C)[nH]n2)n1` [Example 23], the inhibition at 1 µM is less than 50% at c-Src kinase; greater than 90% on Aurora-A kinase; less than 50% at Flt3 kinase; less than 50% on Ret kinase; less than 50% against TrkA Kinase.
`Cc1cnc(Nc2nc(Sc3ccc(NC(=O)Nc4ccccc4)cc3)nc(N3CCN(C)CC3)n2)s1` [Example 4]: the inhibition at 1 µM at c-Src kinase was less than 50%; at Aurora-A kinase, greater than 90%; against Flt3 kinase, 50 to 90%; against Ret kinase it was 50 to 90%; against TrkA Kinase it was 50 to 90%.
In the case of `CCNC(=O)Nc1ccc(Nc2nc(CC)nc(Nc3cc(C)[nH]n3)n2)cc1` [Example 22], the inhibition at 1 µM on c-Src kinase, at Aurora-A kinase, on Flt3 kinase, on Ret kinase and on TrkA Kinase was less than 50% in each case.
Regarding `CCc1nc(Nc2ccc(NC(=O)Nc3ccc(C(F)(F)F)cc3)cc2)nc(Nc2cc(C)[nH]n2)n1` [Example 12], the inhibition at 1 µM is less than 50% on c-Src kinase; greater than 90% on Aurora-A kinase; less than 50% on Flt3 kinase; 50 to 90% on Ret kinase; less than 50% at TrkA Kinase.
Consider `Cc1cnc(Nc2nc(Sc3ccc(N)cc3)nc(N3CCN(C)CC3)n2)s1` [Example 2], for which the inhibition at 1 µM on c-Src kinase is 50 to 90%; on Aurora-A kinase it was 50 to 90%; against Flt3 kinase, greater than 90%; against Ret kinase it was 50 to 90%; at TrkA Kinase it was 50 to 90%.

As usually defined, the inhibition is the percentage by which the read-out fell short of the control.
